The values below come from patent US20260070945A1, “MACROCYCLIC IMMUNOMODULATORS” (Bristol-Myers Squibb Company, priority 2022, published 2026).

Where a SMILES comes first, the peptide text is derived from it. Bridges are numbered along the chain shown (N, C = ends). [ ]: non-standard residue; d: D form. The star is where a group is joined. Phe(4-CH2CH2COOH) = N[C@@H](Cc1ccc(CCC(=O)O)cc1)C(=O)O; Trp(βS-Me) = C[C@@H](c1c[nH]c2ccccc12)[C@H](N)C(=O)O; Phe(4-COOH) = N[C@@H](Cc1ccc(C(=O)O)cc1)C(=O)O; Bip = N[C@@H](Cc1ccc(-c2ccccc2)cc1)C(=O)O; Phe(3-Me) = Cc1cccc(C[C@H](N)C(=O)O)c1; Cha = N[C@@H](CC1CCCCC1)C(=O)O; Carboxymethyl = O=C(O)C*; NMeA = CN[C@@H](C)C(=O)O; Aun = NCCCCCCCCCCC(=O)O; Dab = NCC[C@H](N)C(=O)O; Dap = NC[C@H](N)C(=O)O; AEEA = NCCOCCOCC(=O)O; Ac3c = NC1(C(=O)O)CC1; Piv = CC(C)(C)C(=O)*

The target in the assay is T1, PD-1/PD-L1 interaction (PE-labeled human PD-L1-Ig binding to Jurkat cell line over-expressing human PD-1) (Homo sapiens, UniProt Q15116).
T1 construct: expressed in transfected cells; host or cells: Jurkat
T1 sequence (Q15116 25-288): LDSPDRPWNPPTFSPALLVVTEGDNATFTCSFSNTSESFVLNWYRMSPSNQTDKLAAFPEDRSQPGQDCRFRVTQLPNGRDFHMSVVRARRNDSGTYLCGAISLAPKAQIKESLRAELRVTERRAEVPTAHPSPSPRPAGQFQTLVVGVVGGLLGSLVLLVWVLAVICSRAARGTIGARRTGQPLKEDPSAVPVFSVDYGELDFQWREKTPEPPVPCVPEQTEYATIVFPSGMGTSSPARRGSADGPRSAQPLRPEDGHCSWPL
The assay can be described thus: Jurkat-PD-1 Cell Binding High-Content Screening Assay (CBA). The settings on record: Jurkat-hPD-1 cells, PE-labeled PD-L1-Ig 20 nM final; read-out: Jurkat HPD1 PDL1 IC50. An outline of the steps:
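High-content imaging read-out of PE-PD-L1-Ig binding (20 nM final, 1 h) to Jurkat-hPD-1 cells, after 2 h compound exposure at 37 °C in DMEM with 10% FCS. Nuclei counterstained with Hoechst 33342 after paraformaldehyde fixation.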
Turning to `Cc1cccc(C[C@@H]2NC(=O)[C@H](CC(=O)O)NC(=O)[C@H](Cc3ccc(OCC(=O)O)cc3)NC(=O)[C@H](CN)NC(=O)CSC[C@@H](C(=O)N[C@@H](CCN)C(=O)NCCCCCCCCCCC(=O)O)NC(=O)[C@H](CO)NC(=O)[C@H](C(C)C)NC(=O)[C@H](CC3CCCCC3)NC(=O)[C@H](CCN)NC(=O)[C@@H](CC(C)C)NC(=O)[C@H](C)N(C)C(=O)[C@H](Cc3ccc(O)cc3)NC(=O)[C@H](Cc3ccc(-c4ccccc4)cc3)NC(=O)[C@H](Cc3ccc(OCC(=O)O)cc3)NC2=O)c1` [Example 1259] ({CH2CO}-[Dap]Y(Carboxymethyl)D[Phe(3-Me)]Y(Carboxymethyl)[Bip]Y[NMeA][dL][Dab][Cha]VSC[Dab][Aun]-OH; thioether N-14), the half-maximal inhibitory concentration (IC50) was found to be 14.9 nM.

Regarding `Cc1cccc(C[C@@H]2NC(=O)[C@H](CC(=O)O)NC(=O)[C@H](Cc3ccc(OCC(=O)O)cc3)NC(=O)[C@H](CN)NC(=O)CSC[C@@H](C(=O)N[C@@H](CCN)C(=O)NCCCCCCCCCCC(=O)O)NC(=O)[C@H]([C@@H](C)O)NC(=O)[C@H](C(C)C)NC(=O)[C@H](CC3CCCCC3)NC(=O)[C@H](CCN)NC(=O)[C@@H](CC(C)C)NC(=O)[C@H](C)N(C)C(=O)[C@H](Cc3ccc(OCC(=O)O)cc3)NC(=O)[C@H](Cc3ccc(-c4ccccc4)cc3)NC(=O)[C@H](C(C)C)NC2=O)c1` [Example 1260] ({CH2CO}-[Dap]Y(Carboxymethyl)D[Phe(3-Me)]V[Bip]Y(Carboxymethyl)[NMeA][dL][Dab][Cha]VTC[Dab][Aun]-OH; thioether N-14), the half-inhibitory concentration (IC50) is 10.4 nM.

Consider `Cc1cccc(C[C@@H]2NC(=O)[C@H](CC(=O)O)NC(=O)[C@H](Cc3ccc(OCC(=O)O)cc3)NC(=O)[C@H](CN)NC(=O)CSC[C@@H](C(=O)N[C@@H](CCN)C(=O)NCCCCCCCCCCC(=O)O)NC(=O)[C@H](CO)NC(=O)[C@H](C(C)C)NC(=O)[C@H](CC3CCCCC3)NC(=O)[C@H](CCN)NC(=O)[C@@H](CC(C)C)NC(=O)[C@H](C)N(C)C(=O)[C@H](Cc3ccc(OCC(=O)O)cc3)NC(=O)[C@H](Cc3ccc(-c4ccccc4)cc3)NC(=O)[C@H](C(C)C)NC2=O)c1` [Example 1261] ({CH2CO}-[Dap]Y(Carboxymethyl)D[Phe(3-Me)]V[Bip]Y(Carboxymethyl)[NMeA][dL][Dab][Cha]VSC[Dab][Aun]-OH; thioether N-14), for which the IC50 was 16.6 nM.

In the case of `Cc1cccc(C[C@@H]2NC(=O)[C@H](CC(=O)O)NC(=O)[C@H](Cc3ccc(OCC(=O)O)cc3)NC(=O)[C@H](CN)NC(=O)CSC[C@@H](C(=O)N[C@@H](CCN)C(=O)NCCCCCCCCCCC(=O)O)NC(=O)[C@H]([C@@H](C)O)NC(=O)[C@H](C(C)C)NC(=O)[C@H](CC3CCCCC3)NC(=O)[C@H](CCN)NC(=O)[C@@H](CC(C)C)NC(=O)[C@H](C)N(C)C(=O)[C@H](Cc3ccc(OCC(=O)O)cc3)NC(=O)[C@H](Cc3ccc(-c4ccccc4)cc3)NC(=O)[C@H](Cc3ccc(CCC(=O)O)cc3)NC2=O)c1` [Example 1262] ({CH2CO}-[Dap]Y(Carboxymethyl)D[Phe(3-Me)][Phe(4-CH2CH2COOH)][Bip]Y(Carboxymethyl)[NMeA][dL][Dab][Cha]VTC[Dab][Aun]-OH; thioether N-14), the IC50 came to 8.9 nM.

Regarding `Cc1cccc(C[C@@H]2NC(=O)[C@H](CC(=O)O)NC(=O)[C@H](Cc3ccc(OCC(=O)O)cc3)NC(=O)[C@H](CN)NC(=O)CSC[C@@H](C(=O)N[C@@H](CCN)C(=O)NCCCCCCCCCCC(=O)O)NC(=O)[C@H](CO)NC(=O)[C@H](C(C)C)NC(=O)[C@H](CC3CCCCC3)NC(=O)[C@H](CCN)NC(=O)[C@@H](CC(C)C)NC(=O)[C@H](C)N(C)C(=O)[C@H](Cc3ccc(OCC(=O)O)cc3)NC(=O)[C@H](Cc3ccc(-c4ccccc4)cc3)NC(=O)[C@H](Cc3ccc(OCC(=O)O)cc3)NC2=O)c1` [Example 1263] ({CH2CO}-[Dap]Y(Carboxymethyl)D[Phe(3-Me)]Y(Carboxymethyl)[Bip]Y(Carboxymethyl)[NMeA][dL][Dab][Cha]VSC[Dab][Aun]-OH; thioether N-14), the IC50 was 12.7 nM.

For `Cc1cccc(C[C@@H]2NC(=O)[C@H](CC(=O)O)NC(=O)[C@H](Cc3ccc(OCC(=O)O)cc3)NC(=O)[C@H](Cc3ccc(OCC(=O)O)cc3)NC(=O)CSC[C@@H](C(=O)N[C@@H](CCN)C(=O)NCCCCCCCCCCC(=O)O)NC(=O)[C@H]([C@@H](C)O)NC(=O)[C@H](C(C)C)NC(=O)[C@H](CC3CCCCC3)NC(=O)[C@H](CCN)NC(=O)[C@@H](CC(C)C)NC(=O)[C@H](C)N(C)C(=O)[C@H](Cc3ccc(OCC(=O)O)cc3)NC(=O)[C@H](Cc3ccc(-c4ccccc4)cc3)NC(=O)[C@H](C(C)C)NC2=O)c1` [Example 1264] ({CH2CO}-Y(Carboxymethyl)Y(Carboxymethyl)D[Phe(3-Me)]V[Bip]Y(Carboxymethyl)[NMeA][dL][Dab][Cha]VTC[Dab][Aun]-OH; thioether N-14), the IC50 came out at 31.8 nM.

Regarding `Cc1cccc(C[C@@H]2NC(=O)[C@H](CC(=O)O)NC(=O)[C@H](Cc3ccc(OCC(=O)O)cc3)NC(=O)[C@H](Cc3ccc(OCC(=O)O)cc3)NC(=O)CSC[C@@H](C(=O)N[C@@H](CCN)C(=O)NCCCCCCCCCCC(=O)O)NC(=O)[C@H](CO)NC(=O)[C@H](C(C)C)NC(=O)[C@H](CC3CCCCC3)NC(=O)[C@H](CCN)NC(=O)[C@@H](CC(C)C)NC(=O)[C@H](C)N(C)C(=O)[C@H](Cc3ccc(OCC(=O)O)cc3)NC(=O)[C@H](Cc3ccc(-c4ccccc4)cc3)NC(=O)[C@H](C(C)C)NC2=O)c1` [Example 1265] ({CH2CO}-Y(Carboxymethyl)Y(Carboxymethyl)D[Phe(3-Me)]V[Bip]Y(Carboxymethyl)[NMeA][dL][Dab][Cha]VSC[Dab][Aun]-OH; thioether N-14), the IC50 was 44.1 nM.

With `Cc1cccc(C[C@@H]2NC(=O)[C@H](CC(=O)O)NC(=O)[C@H](Cc3ccc(OCC(=O)O)cc3)NC(=O)[C@H](CCCNC(=N)N)NC(=O)CSC[C@@H](C(=O)N[C@@H](CCN)C(=O)NCCCCCCCCCCC(=O)O)NC(=O)[C@@H](CO)NC(=O)[C@H](C(C)C)NC(=O)[C@H](CC3CCCCC3)NC(=O)[C@H](CCN)NC(=O)[C@@H](CC(C)C)NC(=O)[C@H](C)N(C)C(=O)[C@H](Cc3ccc(OCC(=O)O)cc3)NC(=O)[C@H](Cc3ccc(-c4ccccc4)cc3)NC(=O)[C@H](C(C)C)NC2=O)c1` [Example 1266] ({CH2CO}-RY(Carboxymethyl)D[Phe(3-Me)]V[Bip]Y(Carboxymethyl)[NMeA][dL][Dab][Cha]V[dS]C[Dab][Aun]-OH; thioether N-14), the IC50 stood at 26.6 nM.

For `Cc1cccc(C[C@@H]2NC(=O)[C@H](CC(=O)O)NC(=O)[C@H](Cc3ccc(CCC(=O)O)cc3)NC(=O)[C@H](CCCNC(=N)N)NC(=O)CSC[C@@H](C(=O)N[C@@H](CCN)C(=O)NCCCCCCCCCCC(=O)O)NC(=O)[C@@H](CO)NC(=O)[C@H](C(C)C)NC(=O)[C@H](CC3CCCCC3)NC(=O)[C@H](CCN)NC(=O)[C@@H](CC(C)C)NC(=O)[C@H](C)N(C)C(=O)[C@H](Cc3ccc(O)cc3)NC(=O)[C@H](Cc3ccc(-c4ccccc4)cc3)NC(=O)[C@H](C(C)C)NC2=O)c1` [Example 1267] ({CH2CO}-R[Phe(4-CH2CH2COOH)]D[Phe(3-Me)]V[Bip]Y[NMeA][dL][Dab][Cha]V[dS]C[Dab][Aun]-OH; thioether N-14), the IC50 came out at 22.8 nM.

As to `Cc1cccc(C[C@@H]2NC(=O)[C@H](CC(=O)O)NC(=O)[C@H](Cc3ccc(CCC(=O)O)cc3)NC(=O)[C@H](CCNC(=O)C(C)(C)C)NC(=O)CSC[C@@H](C(=O)N[C@@H](CCN)C(=O)NCCCCCCCCCCC(=O)O)NC(=O)[C@H]([C@@H](C)O)NC(=O)[C@H](C(C)C)NC(=O)[C@H](CC3CCCCC3)NC(=O)[C@H](CCN)NC(=O)[C@@H](CC(C)C)NC(=O)[C@H](C)N(C)C(=O)[C@H](Cc3ccc(OCC(=O)O)cc3)NC(=O)[C@H](Cc3ccc(-c4ccccc4)cc3)NC(=O)[C@H](Cc3ccc(C(=O)O)cc3)NC2=O)c1` [Example 1269] ({CH2CO}-[Dab](Piv)[Phe(4-CH2CH2COOH)]D[Phe(3-Me)][Phe(4-COOH)][Bip]Y(Carboxymethyl)[NMeA][dL][Dab][Cha]VTC[Dab][Aun]-OH; thioether N-14), the 50% inhibitory concentration (IC50) was 19.2 nM.

Consider `Cc1cccc(C[C@@H]2NC(=O)[C@H](CC(=O)O)NC(=O)[C@H](Cc3ccc(OCC(=O)O)cc3)NC(=O)[C@H](CCNC(=O)C(C)(C)C)NC(=O)CSC[C@@H](C(=O)N[C@@H](CCN)C(=O)NCCCCCCCCCCC(=O)O)NC(=O)[C@H](CCC(N)=O)NC(=O)[C@H](C(C)C)NC(=O)[C@H](CC3CCCCC3)NC(=O)[C@H](CCN)NC(=O)[C@@H](CC(C)C)NC(=O)[C@H](C)N(C)C(=O)[C@H](Cc3ccc(OCC(=O)O)cc3)NC(=O)[C@H](Cc3ccc(-c4ccccc4)cc3)NC(=O)[C@H](Cc3ccc(C(=O)O)cc3)NC2=O)c1` [Example 1270] ({CH2CO}-[Dab](Piv)Y(Carboxymethyl)D[Phe(3-Me)][Phe(4-COOH)][Bip]Y(Carboxymethyl)[NMeA][dL][Dab][Cha]VQC[Dab][Aun]-OH; thioether N-14), for which the IC50 was found to be 61.9 nM.

In the case of `CC(C)C[C@@H]1NC(=O)[C@H]([C@@H](C)c2c[nH]c3ccccc23)NC(=O)[C@H](CC(=O)O)NC(=O)[C@H](Cc2ccc(OCC(=O)O)cc2)NC(=O)[C@H](Cc2ccc(OCC(=O)O)cc2)NC(=O)CSC[C@@H](C(=O)NC2(C(=O)NCCOCCOCC(=O)NCCCCCCCCCCC(=O)O)CC2)NC(=O)[C@H](CCCNC(=N)N)NC(=O)[C@H](C(C)C)NC(=O)[C@H](CC2CCCCC2)NC(=O)[C@H](CCN)NC(=O)[C@@H](CC(C)C)NC(=O)[C@H](C)N(C)C(=O)[C@H](C(C)C)NC(=O)[C@H](Cc2ccc(-c3ccccc3)cc2)NC1=O` [Example 1271] ({CH2CO}-Y(Carboxymethyl)Y(Carboxymethyl)D[Trp(βS-Me)]L[Bip]V[NMeA][dL][Dab][Cha]VRC[Ac3c][AEEA][Aun]-OH; thioether N-14), the IC50 worked out at 39.1 nM.
